Data: patent US5449752A, “Polypeptides with affinity to lipopolysaccharides and their uses” (Seikagaku Kogyo K.K., priority 1991, dated 1995)
Values after ≈ are worked out from the molar mass of the structure shown. Positions of bridges follow the written chain, without caps; N, C: chain ends. Residues, ends and D or L forms follow the SMILES beside them. No end group written: not given here.

Tests used:
[1] = test system: MT-4 cells; test: Cytotoxicity on virus-noninfected MT-4 cells (MTT method); assay type: cell-based; details: 37° C., 5 days
Method: (§1) HIV-infected MT-4 cells (2.5×10^4 cells/well, multiplicity of infection (MOI): 0.001) immediately after infection were added together with the test substance with various changes of the concentration to a 96-well microtitre plate. After incubation at 37° C. for 5 days in a CO2 incubator, the number of survivor cells was measured by the MTT method [Pauwels et al.; J. Virol. Methods, 20, 309-321 (1988)]. The antiviral activity is expressed as a concentration at which cell death due to HIV infection is 50% inhibited (EC50 : 50% effective concentration). On the other hand, in order to know the cytotoxicity of the test substance on the MT-4 cells, virus-noninfected cells are incubated, likewise as above, together with the test compound with various changes of the concentration. The cytotoxicity is expressed as 50% cytotoxic concentration […] due to the test substance. Further, the rough ratio of CC50 to EC50 (CC50 /EC50) is expressed as an effective ratio (SI=selectivity index).

[2] = test system: HIV; test: Antiviral activity against HIV in HIV-infected MT-4 cells (MTT method); assay type: cell-based, human immunodeficiency virus; details: for EC50 (concentration at which cell death due to HIV infection is 50% inhibited): HIV-infected MT-4 cells, MOI 0.001, 37° C., 5 days, MTT method
Method: The antiviral activity-against HIV of the polypeptide (1) synthesized in Example 1 as well as polypeptides (2), (3), (4), (7), (12), (13), (14), (20), (21) and (26) was tested and evaluated according to the following method.
as §1

Q: With `N=C(N)NCCC[C@H](NC(=O)[C@@H]1CSSC[C@H](NC(=O)[C@H](Cc2c[nH]c3ccccc23)NC(=O)[C@H](CCCNC(=N)N)NC(=O)[C@@H](N)CCCNC(=N)N)C(=O)N[C@@H](Cc2ccc(O)cc2)C(=O)N[C@@H](CCCNC(=N)N)C(=O)N[C@@H](CCCCN)C(=O)N[C@H]2CSSC[C@H](NC(=O)[C@H](Cc3ccccc3)NC(=O)CNC(=O)[C@H](CCCCN)NC(=O)[C@H](Cc3ccccc3)NC2=O)C(=O)N[C@@H](Cc2ccc(O)cc2)C(=O)N[C@@H](CCCNC(=N)N)C(=O)N[C@@H](CCCCN)C(=O)N1)C(N)=O` [polypeptide (20), ArgArgTrpCysTyrArgLysCysPheLysGlyPheCysTyrArgLysCysArgNH2] (H-RRWCYRKCFKGFCYRKCR-NH2; disulfide 4-17, 8-13; N-terminus assumed) as the compound, how does the “CC50 (50% cytotoxic concentration)” value [1] read?
A: 54 µg/mL (≈ 22 µM)

Q: And the “EC50 (concentration at which cell death due to HIV infection is 50% inhibited)” value [2]?
A: 0.01 µg/mL (≈ 0.00407 µM)

Q: `N=C(N)NCCC[C@H](NC(=O)[C@@H]1CSSC[C@H](NC(=O)[C@H](Cc2c[nH]c3ccccc23)NC(=O)[C@@H](N)CCCNC(=N)N)C(=O)N[C@@H](Cc2ccc(O)cc2)C(=O)N[C@@H](CCCNC(=N)N)C(=O)N[C@@H](CCCCN)C(=O)N[C@H]2CSSC[C@H](NC(=O)[C@H](Cc3ccccc3)NC(=O)CNC(=O)[C@H](CCCCN)NC(=O)[C@H](Cc3ccccc3)NC2=O)C(=O)N[C@@H](Cc2ccc(O)cc2)C(=O)N[C@@H](CCCNC(=N)N)C(=O)N[C@@H](CCCCN)C(=O)N1)C(N)=O` [polypeptide (21), ArgTrpCysTyrArgLysCysPheLysGlyPheCysTyrArgLysCysArgNH2] (H-RWCYRKCFKGFCYRKCR-NH2; disulfide 3-16, 7-12; N-terminus assumed) was tested. Which “CC50 (50% cytotoxic concentration)” value [1] did it give?
A: 53 µg/mL (≈ 23.1 µM)

Q: What about the “EC50 (concentration at which cell death due to HIV infection is 50% inhibited)” value [2] of the same compound?
A: 0.08 µg/mL (≈ 0.0348 µM)

Q: `N=C(N)NCCC[C@H](NC(=O)[C@@H]1CSSC[C@H](NC(=O)[C@H](Cc2c[nH]c3ccccc23)NC(=O)[C@@H](N)CCCNC(=N)N)C(=O)N[C@@H](Cc2ccc(O)cc2)C(=O)N[C@@H](CCCNC(=N)N)C(=O)N[C@@H](CCCCN)C(=O)N[C@H]2CSSC[C@H](NC(=O)[C@H](Cc3ccc(O)cc3)NC(=O)CNC(=O)[C@H](CCCCN)NC(=O)[C@H](Cc3ccc(O)cc3)NC2=O)C(=O)N[C@@H](Cc2ccc(O)cc2)C(=O)N[C@@H](CCCNC(=N)N)C(=O)N[C@@H](CCCCN)C(=O)N1)C(N)=O` [polypeptide (26), ArgTrpCysTyrArgLysCysTyrLysGlyTyrCysTyrArgLysCysArgNH2] (H-RWCYRKCYKGYCYRKCR-NH2; disulfide 3-16, 7-12; N-terminus assumed) was tested. Which “CC50 (50% cytotoxic concentration)” value [1] did it give?
A: 165 µg/mL (≈ 70.8 µM)

Q: What about the “EC50 (concentration at which cell death due to HIV infection is 50% inhibited)” value [2] of the same compound?
A: 0.18 µg/mL (≈ 0.0772 µM)

Q: And the “selectivity in killing HIV infected cells (in words)” value ([2]; MT-4 cells, Table III)?
A: particularly selective

Q: What about the “selectivity index higher than for any of the known high endotoxin affinity compounds” value ([2]; compared with Tachyplesins and Polyphemusins of Table III) of the same compound?
A: at least 7 fold

Q: With “ArgArgTyrCysTyrArgLysCysTyrLysGlyTyrCysTrpArgLysCysArgNH2 (RRYCYRKCYKGYCWRKCR-NH2; cysteine pairing not given here) [polypeptide (7)]” as the compound, how does the “CC50 (50% cytotoxic concentration)” value [1] read?
A: 100 µg/mL

Q: What about the “EC50 (concentration at which cell death due to HIV infection is 50% inhibited)” value [2] of the same compound?
A: 0.36 µg/mL

Q: What about the “SI (CC50 /EC50)” value ([2]; rough ratio of CC50 to EC50, MT-4 cells) of the same compound?
A: 278
